A short description of data set [1]: Metabolic stability in human liver microsomes assessed as intrinsic clearance measured upto 30 mins in presence of NADPH by LC/MS/MS analysis. The note with it: read-out: CLH. In kind it is ADME, Microsome. Background: Liver microsomes are a subcellular fraction often used to study metabolism.
Data set [2] is described as follows: Lipophilicity, logD of the compound in octanol and phosphate buffer at pH 7.4 incubated for 4 hrs under shaking condition by liquid chromatography tandem mass spectrometry. The data set is classed as physicochemical.
In data set [3] the target is Protein arginine N-methyltransferase 5 (Homo sapiens, UniProt O14744). Put plainly: Inhibition of PRMT5 methyltransferase activity in human MTAP -/- Calu-6 cells assessed as reduction in SmB SDMA levels measured after 2 days by HTRF based assay. In kind it is cell-based. Background: In TR-FRET formats the signal depends on donor and acceptor labels being close together.
Chain of Protein arginine N-methyltransferase 5 (O14744 whole entry): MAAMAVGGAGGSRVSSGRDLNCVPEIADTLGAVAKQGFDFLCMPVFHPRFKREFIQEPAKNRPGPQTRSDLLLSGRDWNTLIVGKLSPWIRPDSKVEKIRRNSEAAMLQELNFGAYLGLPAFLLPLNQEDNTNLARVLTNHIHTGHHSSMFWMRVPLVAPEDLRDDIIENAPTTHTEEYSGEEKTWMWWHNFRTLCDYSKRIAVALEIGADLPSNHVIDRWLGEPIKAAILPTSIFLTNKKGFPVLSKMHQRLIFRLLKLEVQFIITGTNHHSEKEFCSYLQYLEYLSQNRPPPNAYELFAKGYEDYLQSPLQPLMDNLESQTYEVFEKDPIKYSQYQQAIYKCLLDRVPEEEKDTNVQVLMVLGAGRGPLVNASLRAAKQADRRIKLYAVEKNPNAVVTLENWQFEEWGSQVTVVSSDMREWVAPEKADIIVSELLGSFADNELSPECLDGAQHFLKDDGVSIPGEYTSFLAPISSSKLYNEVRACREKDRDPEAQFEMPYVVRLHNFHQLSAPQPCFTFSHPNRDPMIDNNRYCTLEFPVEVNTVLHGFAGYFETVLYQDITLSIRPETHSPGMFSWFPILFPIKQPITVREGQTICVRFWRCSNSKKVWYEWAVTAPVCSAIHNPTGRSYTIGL

The nature of data set [4]: Efflux ratio of apparent permeability across […] in MDCK-MDR1 incubated for 120 mins by LC-MS analysis. In kind it is ADME, cell-based, Canis lupus familiaris. Particulars: dog, mdck-mdr1, 2 h.

Data on 11 compounds can be found in ChEMBL document CHEMBL5126629, “Paradoxical Increase of Permeability and Lipophilicity with the Increasing Topological Polar Surface Area within a Series of PRMT5 Inhibitors” (J Med Chem, 2022).

What is called logD is the decadic logarithm of the distribution of all forms, ionised or not, between an organic phase and buffer at a given pH. Lower therefore signals lower lipophilicity. What is called IC50 is the concentration at which inhibition is half-maximal. As for `Cc1cc2ncc(Cn3c(C(=O)N(C)c4ccccc4)cn(C)c3=O)cc2nc1N`, the microsomal CLint in data set [1] was 36 µL/min/mg. In data set [2], this compound gave a pH-dependent lipophilicity (logD) at 4 h of 1.1. For the same compound, the IC50 in data set [3] came to 29 nM.
`Cc1cc2ccc(Cn3c(C(=O)N(C)c4ccccc4)cn(C)c3=O)cc2nc1N`: the microsomal CLint in data set [1] was 395 µL/min/mg. The compound further registered a log distribution coefficient (logD) at 4 h in data set [2] of 1.6. Moreover, the Ratio in data set [4] is 35. Further, in data set [3], the 50% inhibitory concentration (IC50) amounted to 2 nM.
For `Cc1cc2ccc(Cn3c(C(=O)N(C)c4ccccc4)coc3=O)cc2nc1N`, the microsomal CLint in data set [1] was found to be 240 µL/min/mg. This compound gave a logD at 4 h in data set [2] of 1.8. Moreover, the Ratio in data set [4] is given as 2. In addition, in data set [3], the half-maximal inhibitory concentration (IC50) came out at 1 nM.
For `Cc1cc2ccc(Cn3c(C(=O)N(C)c4ccccc4)nn(C)c3=O)cc2nc1N`, the microsomal CLint in data set [1] turned out to be 97 µL/min/mg. For the same compound, the logD at 4 h in data set [2] came to 1.9. Also, the Ratio in data set [4] is given as 6. In addition, the IC50 in data set [3] came out at 2 nM.
On the same counts, the results for `Cc1cc2ccc(Cn3c(C(=O)N(C)c4ccccc4)cccc3=O)cc2nc1N` are 422 µL/min/mg, 2, 22 and 17 nM.
As to `Cc1cc2ccc(Cn3c(C(=O)N(C)c4ccccc4)noc3=O)cc2nc1N`, the microsomal CLint in data set [1] is above 700 µL/min/mg. The log distribution coefficient (logD) at 4 h in data set [2] came to 2.9. Besides, the Ratio in data set [4] is 1. The IC50 in data set [3] stood at 49 nM.
Turning to `Cc1cc2ccc(Cn3c(C(=O)N(C)c4ccccn4)nn(C)c3=O)cc2nc1N`, the microsomal CLint in data set [1] was below 25 µL/min/mg. For the same compound, the logD at 4 h in data set [2] was 0.9. Besides, in data set [4], the Ratio is listed as 17. Further, the half-maximal inhibitory concentration (IC50) in data set [3] came out at 21 nM.
As to `Cc1cc2ccc(Cn3nncc3C(=O)N(C)c3ccccc3)cc2nc1N`, the microsomal CLint in data set [1] stood at 547 µL/min/mg. The pH-dependent lipophilicity (logD) at 4 h in data set [2] was 2.1. The Ratio in data set [4] stood at 3. Moreover, in data set [3], the IC50 worked out at 50 nM.
Take `Cc1cc2ccc(Cn3nccc3C(=O)N(C)c3ncccc3F)cc2nc1N`: in data set [1], the microsomal CLint came to 89 µL/min/mg. Besides, in data set [2], the pH-dependent lipophilicity (logD) at 4 h came to 1.8. For the same compound, in data set [4], the Ratio was determined as 1. For the same compound, the IC50 in data set [3] was 14 nM.
As to `Cc1cc2ccc(Cn3c(C(=O)N(C)c4ccccn4)cn(C)c3=O)cc2nc1N`, the microsomal CLint in data set [1] worked out at 28 µL/min/mg. In data set [2], the logD at 4 h is 0.8. Moreover, the Ratio in data set [4] worked out at 14. Besides, the IC50 in data set [3] amounted to 9 nM.
For `Cc1cc2ccc(Cn3c(C(=O)N(C)c4ccccc4)nccc3=O)cc2nc1N`, in that order: 299 µL/min/mg, 2.1, 8 and 39 nM.
